Data taken from patent US8143255B2, “Heteroalkyl linked pyrimidine derivatives” (S*BIO Pte Ltd., priority 2005, dated 2012).

Experiments:
[1] = system: HEL92.1.7 (erythroleukemia cell line); assay: Cell-based proliferation assay, HEL92.1.7; conditions: Homo sapiens, HEL 92.1.7; HEL92.1.7 cells, 96 h treatment
Protocol: (§1) Human cancer cell lines HL60 (acute myeloid leukemia cell line), Colo205 (colon adenocarcinoma cell line), HEL92.1.7 (erythroleukemia cell line), MV4-11 (acute myeloid leukemia cell line) and DU145 (metastatic prostate cancer cell line) were obtained from ATCC. They were cultivated in the media according to the ATCC work instructions. Colo205 and DU145 cells were seeded in 96-wells plate 5000 cells per cell and 1000 cells per well respectively. HEL92.1.7 and MV4-11 cells were seeded at 6000 cells per well while HL60 cells were seeded at 8000 cells per well in 96 well plate. The plates were incubated at 37° C., 5% CO2, for 24 h. Cells were treated with compounds at various concentrations for 96 h. Cell growth was then monitored using Celltiter96 Aqueous One Solution Cell Proliferation Assay from Promega (Madison Wis.). Dose response curves were plotted to determine GI50 values for the compounds using XL-fit (ID Business Solution, Emeryville, Calif.).

FLT3 = target: T1, FLT3 (Homo sapiens, UniProt P36888); assay: In vitro kinase activity assay (PKLight), FLT3; format: biochemical; conditions: recombinant FLT3, poly(Glu,Tyr) substrate, 4 μM ATP
T1 construct: purchased Invitrogen PV3182
T1 sequence (P36888 27-993): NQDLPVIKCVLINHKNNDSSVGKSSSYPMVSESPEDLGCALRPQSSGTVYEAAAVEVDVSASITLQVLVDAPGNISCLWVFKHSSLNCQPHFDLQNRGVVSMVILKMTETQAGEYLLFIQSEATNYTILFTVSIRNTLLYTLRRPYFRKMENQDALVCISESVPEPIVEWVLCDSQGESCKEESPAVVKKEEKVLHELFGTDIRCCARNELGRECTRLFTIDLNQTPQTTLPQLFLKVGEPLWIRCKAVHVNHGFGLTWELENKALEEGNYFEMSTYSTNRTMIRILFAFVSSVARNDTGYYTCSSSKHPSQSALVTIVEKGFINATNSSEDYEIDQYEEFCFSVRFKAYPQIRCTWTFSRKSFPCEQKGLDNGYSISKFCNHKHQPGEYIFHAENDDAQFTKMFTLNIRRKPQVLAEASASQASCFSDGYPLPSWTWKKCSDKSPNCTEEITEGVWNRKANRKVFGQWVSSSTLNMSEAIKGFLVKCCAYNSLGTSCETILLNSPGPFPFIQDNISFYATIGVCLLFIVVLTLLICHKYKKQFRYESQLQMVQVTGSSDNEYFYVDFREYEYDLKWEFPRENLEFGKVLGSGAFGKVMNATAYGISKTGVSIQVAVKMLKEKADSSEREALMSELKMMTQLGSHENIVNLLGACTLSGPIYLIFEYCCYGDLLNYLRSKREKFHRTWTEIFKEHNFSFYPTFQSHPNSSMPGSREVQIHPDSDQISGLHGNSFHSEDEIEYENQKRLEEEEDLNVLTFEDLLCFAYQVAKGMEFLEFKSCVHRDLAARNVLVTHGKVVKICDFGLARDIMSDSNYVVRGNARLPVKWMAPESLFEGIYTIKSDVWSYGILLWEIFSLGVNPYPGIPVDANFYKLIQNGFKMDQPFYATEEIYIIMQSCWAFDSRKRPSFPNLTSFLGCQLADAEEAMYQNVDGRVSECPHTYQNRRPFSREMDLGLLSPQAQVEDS
Protocol: The recombinant enzymes (CDK2/CyclinA, FLT3, JAK2 and JAK2 V617F) were purchased from Invitrogen (Cat # PV3267, 3182, 4210 and 4347 respectively). All assays were carried out in 384-well white microtiter plates using the PKLight assay system from Cambrex (East rutherford, N.J.). This assay platform is essentially a luminometdc assay for the detection of ATP in the reaction using a luciferase-coupled reaction. For CDK2/Cyclin A assay, the reaction mixture consisted of the following components in 25 μL assay buffer (50 mM Hepes pH 7.5, 10 mM MgCl2, 5 mM MnCl2, 5 mM BGP, 1 mM DTT, 0.1 mM sodium orthovanadate), 1.4 μg/mL of CDK2/Cyclin A complex, 0.5 μM of RbING substrate (Invitrogen, Cat # PV2939) and 0.5 μM of ATP. The compounds were tested at 8 concentrations prepared from 4-fold serial dilution starting at 10 μM. The reaction was incubated at room temperature for 2 hr. 13 μL of PKLight ATP detection reagent was added and the reaction was incubated for 10 min. Luminescence signals were detected on a multi-label plate reader (Victor^2 V 1420, Perkin-Elmer). The other kinase assays were identical except for the following differences in reagents. For FLT3 assays, the reaction contained 2.0 μg/mL FLT3 enzyme, 5 μM of poly(Glu,Tyr) substrate (Sigma, Cat # P0275) and 4 μM of ATP. For JAK2 assays, the reaction contained 0.6 μg/mL of JAK2 enzyme, 2 μM of poly(Glu,Ala,Tyr) substrate (Sigma, Cat # P3899) and 0.2 μM of ATP. For JAK2 V617F mutant assays, the reaction contained 8.0 μg/mL of JAK2 mutant enzyme, 2 μM of poly(Glu,Ala,Tyr) substrate (Sigma, Cat # P3899) and 0.2 μM of ATP. The analytical software, Prism 4.0 (GraphPad Software Pte Ltd) was used to generate IC50 values from the data. […] IC50 values are shown below in Table 3.

CDK2/CyclinA = target: T2, CDK2/CyclinA (Homo sapiens, UniProt P24941); assay: In vitro kinase activity assay (PKLight), CDK2/Cyclin A; format: biochemical; conditions: recombinant CDK2/Cyclin A, RbING substrate, 0.5 μM ATP, 2 hr
T2 construct: purchased Invitrogen PV3267
Protocol: (§2) All assays were carried out in 384-well white microtiter plates using the PKLight assay system from Cambrex (East rutherford, N.J.). This assay platform is essentially a luminometdc assay for the detection of ATP in the reaction using a luciferase-coupled reaction. For CDK2/Cyclin A assay, the reaction mixture consisted of the following components in 25 μL assay buffer (50 mM Hepes pH 7.5, 10 mM MgCl2, 5 mM MnCl2, 5 mM BGP, 1 mM DTT, 0.1 mM sodium orthovanadate), 1.4 μg/mL of CDK2/Cyclin A complex, 0.5 μM of RbING substrate (Invitrogen, Cat # PV2939) and 0.5 μM of ATP. The compounds were tested at 8 concentrations prepared from 4-fold serial dilution starting at 10 μM. The reaction was incubated at room temperature for 2 hr. 13 μL of PKLight ATP detection reagent was added and the reaction was incubated for 10 min. Luminescence signals were detected on a multi-label plate reader (Victor^2 V 1420, Perkin-Elmer). The other kinase assays were identical except for the following differences in reagents. For FLT3 assays, the reaction contained 2.0 μg/mL FLT3 enzyme, 5 μM of poly(Glu,Tyr) substrate (Sigma, Cat # P0275) and 4 μM of ATP. For JAK2 assays, the reaction contained 0.6 μg/mL of JAK2 enzyme, 2 μM of poly(Glu,Ala,Tyr) substrate (Sigma, Cat # P3899) and 0.2 μM of ATP. […] The analytical software, Prism 4.0 (GraphPad Software Pte Ltd) was used to generate IC50 values from the data.

JAK2 = target: T3, JAK2 (Homo sapiens, UniProt O60674); assay: In vitro kinase activity assay (PKLight), JAK2; format: biochemical; conditions: recombinant JAK2, poly(Glu,Ala,Tyr) substrate, 0.2 μM ATP
T3 construct: purchased Invitrogen PV4210
T3 sequence (O60674 whole entry): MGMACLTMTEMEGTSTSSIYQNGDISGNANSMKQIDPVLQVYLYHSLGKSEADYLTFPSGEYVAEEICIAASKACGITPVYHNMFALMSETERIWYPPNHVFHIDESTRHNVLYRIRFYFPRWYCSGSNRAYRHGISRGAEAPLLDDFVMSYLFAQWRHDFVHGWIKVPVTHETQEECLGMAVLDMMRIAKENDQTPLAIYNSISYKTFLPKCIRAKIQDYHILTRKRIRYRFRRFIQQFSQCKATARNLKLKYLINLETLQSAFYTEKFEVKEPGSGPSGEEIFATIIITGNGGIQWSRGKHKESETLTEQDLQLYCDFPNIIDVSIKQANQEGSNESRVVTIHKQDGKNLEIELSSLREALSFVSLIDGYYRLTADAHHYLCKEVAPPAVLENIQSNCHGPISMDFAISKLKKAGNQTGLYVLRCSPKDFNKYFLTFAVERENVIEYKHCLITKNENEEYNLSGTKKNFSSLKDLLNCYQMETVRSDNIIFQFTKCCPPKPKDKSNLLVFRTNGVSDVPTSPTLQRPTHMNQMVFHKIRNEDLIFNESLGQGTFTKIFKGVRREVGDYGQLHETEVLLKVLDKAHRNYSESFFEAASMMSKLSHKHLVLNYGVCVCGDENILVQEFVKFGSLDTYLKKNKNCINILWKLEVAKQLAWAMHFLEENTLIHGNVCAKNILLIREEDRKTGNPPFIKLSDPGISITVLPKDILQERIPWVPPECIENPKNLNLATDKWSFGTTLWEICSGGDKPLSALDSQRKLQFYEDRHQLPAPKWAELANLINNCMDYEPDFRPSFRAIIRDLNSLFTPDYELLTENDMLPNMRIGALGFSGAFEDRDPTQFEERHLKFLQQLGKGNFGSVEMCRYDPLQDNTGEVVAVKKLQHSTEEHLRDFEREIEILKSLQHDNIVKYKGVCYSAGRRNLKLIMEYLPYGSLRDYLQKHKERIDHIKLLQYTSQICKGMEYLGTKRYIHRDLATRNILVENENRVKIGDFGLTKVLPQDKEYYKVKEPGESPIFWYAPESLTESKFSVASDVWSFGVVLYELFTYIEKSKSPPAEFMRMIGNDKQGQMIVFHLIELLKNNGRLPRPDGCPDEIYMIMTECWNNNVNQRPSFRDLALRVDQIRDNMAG
Protocol: as §2

[2] = system: MV4-11 (acute myeloid leukemia cell line); assay: Cell-based proliferation assay, MV4-11; conditions: Homo sapiens; MV4-11 cells, 96 h treatment
Protocol: as §1

[3] = system: HL60 (acute myeloid leukemia cell line); assay: Cell-based proliferation assay, HL60; conditions: Homo sapiens, HL-60; HL60 cells, 96 h treatment
Protocol: as §1

[4] = system: Colo205 (colon adenocarcinoma cell line); assay: Cell-based proliferation assay, Colo205; conditions: Homo sapiens, COLO 205; Colo205 cells, 96 h treatment
Protocol: as §1

[5] = system: DU145 (metastatic prostate cancer cell line); assay: Cell-based proliferation assay, DU145; conditions: Homo sapiens, DU-145; DU145 cells, 96 h treatment
Protocol: as §1

JAK2 V617F = target: T4, JAK2 V617F (Homo sapiens, UniProt O60674, V617F); assay: In vitro kinase activity assay (PKLight), JAK2 V617F mutant; format: biochemical; conditions: recombinant JAK2 V617F mutant, poly(Glu,Ala,Tyr) substrate, 0.2 μM ATP
T4 construct: purchased Invitrogen PV4347
T4 sequence (O60674 whole entry V617F): as the sequence (O60674 whole entry) above, with V617F counted along it
Protocol: as §2

Structure (SMILES)	GI50 [1]	IC50 (FLT3)	IC50 (CDK2/CyclinA)	IC50 (JAK2)	GI50 [2]	GI50 [3]	GI50 [4]	GI50 [5]	IC50 (JAK2 V617F)
CN1C/C=C/CCOc2cc(F)cc(c2)-c2ccnc(n2)Nc2cccc(c2)C1 [Compound 35]	≤ 1000 nM	≤ 1000 nM	≤ 1000 nM	≤ 1000 nM	≤ 1000 nM	≤ 1000 nM	≤ 1000 nM	≤ 1000 nM	
CN1C/C=C/CCOc2cccc(c2)-c2ccnc(n2)Nc2ccc(OCCN3CCOCC3)c(c2)C1 [Compound 13]		≤ 1000 nM	≤ 1000 nM	≤ 1000 nM	> 5000 nM	≤ 1000 nM	≤ 1000 nM		
CN1Cc2cccc(c2)Nc2nccc(n2)-c2cccc(c2)OCCC2CC2C1 (stereo not shown) [Compound 20]		≤ 1000 nM	≤ 1000 nM	≤ 1000 nM		≤ 1000 nM	≤ 1000 nM		≤ 1000 nM
C1=C/CNCc2cccc(c2)Nc2nccc(n2)-c2cccc(c2)OCC/1 [Compound 22]		≤ 1000 nM	≤ 1000 nM						
CN1C/C=C/CCOc2cccc(c2)-c2ccnc(n2)Nc2cc(ccn2)C1 [Compound 44]	1000 to 5000 nM	> 5000 nM	1000 to 5000 nM	> 5000 nM	1000 to 5000 nM	1000 to 5000 nM			
CN1C/C=C/CCOc2cc(ccc2N)-c2ccnc(n2)Nc2cccc(c2)C1 [Compound 38]		≤ 1000 nM	≤ 1000 nM	≤ 1000 nM		≤ 1000 nM	1000 to 5000 nM		
Cc1cnc2nc1-c1cccc(c1)OCC/C=C/CN(C)Cc1cccc(c1)N2 [Compound 27]	≤ 1000 nM	≤ 1000 nM	≤ 1000 nM	≤ 1000 nM	≤ 1000 nM	≤ 1000 nM	1000 to 5000 nM	1000 to 5000 nM	
C1=C\CNCc2cccc(c2)Nc2nccc(n2)-c2cccc(c2)OCC/1 [Compound 29]		≤ 1000 nM	≤ 1000 nM						
C1=C/CN(C2CC2)Cc2cccc(c2)Nc2nccc(n2)-c2cccc(c2)OCC/1 [Compound 25]		≤ 1000 nM	≤ 1000 nM	≤ 1000 nM					
O=C1CC/C=C/COCc2cccc(c2)Nc2nccc(n2)-c2cccc(c2)N1 [Compound 4]	> 5000 nM	> 5000 nM	1000 to 5000 nM	> 5000 nM	1000 to 5000 nM	> 5000 nM	> 5000 nM	> 5000 nM	
CN1C/C=C/CC(=O)Nc2cccc(c2)-c2ccnc(n2)Nc2cccc(c2)C1 [Compound 14]	> 5000 nM	1000 to 5000 nM	1000 to 5000 nM	> 5000 nM	1000 to 5000 nM	> 5000 nM	> 5000 nM		
CN1C/C=C/CCOc2cccc(c2)-c2ccnc(n2)Nc2ccc(N3CCOCC3)c(c2)C1 [Compound 39]	≤ 1000 nM	≤ 1000 nM	≤ 1000 nM	≤ 1000 nM	≤ 1000 nM	≤ 1000 nM			≤ 1000 nM

Next, values leading:

GI50 [1]	IC50 (FLT3)	IC50 (CDK2/CyclinA)	IC50 (JAK2)	GI50 [2]	GI50 [3]	GI50 [4]	GI50 [5]	IC50 (JAK2 V617F)	Structure (SMILES)
≤ 1000 nM	≤ 1000 nM	≤ 1000 nM	≤ 1000 nM	≤ 1000 nM	≤ 1000 nM				CN1C/C=C/CCOc2cccc(c2)-c2ccnc(n2)Nc2ccc(OCCn3cncn3)c(c2)C1 [Compound 61]
1000 to 5000 nM	≤ 1000 nM	≤ 1000 nM	≤ 1000 nM	≤ 1000 nM	≤ 1000 nM	1000 to 5000 nM			CN1C/C=C/COCC2=CC=C(O2)c2ccnc(n2)Nc2cccc(c2)C1 [Compound 62]
≤ 1000 nM	≤ 1000 nM	≤ 1000 nM	≤ 1000 nM	≤ 1000 nM	≤ 1000 nM				CN1C/C=C/CCOc2cccc(c2)-c2ccnc(n2)Nc2cc(N)cc(c2)C1 [Compound 81]
≤ 1000 nM	≤ 1000 nM	≤ 1000 nM	≤ 1000 nM	≤ 1000 nM	≤ 1000 nM	≤ 1000 nM			CCS(=O)(=O)CCOc1ccc2cc1CN(C)C/C=C/CCOc1cccc(c1)-c1ccnc(n1)N2 [Compound 70]
≤ 1000 nM	≤ 1000 nM	≤ 1000 nM	≤ 1000 nM	≤ 1000 nM	≤ 1000 nM				CN1C/C=C/CCOc2cccc(c2)-c2ccnc(n2)Nc2ccc(OCCN3CCCCC3)c(c2)C1 [Compound 46]
≤ 1000 nM	≤ 1000 nM	≤ 1000 nM	≤ 1000 nM	≤ 1000 nM	≤ 1000 nM				CN1C/C=C/COCC2=CC=C(S2)c2ccnc(n2)Nc2ccc(OCCN3CCCC3)c(c2)C1 [Compound 74]
